Measurements taken from patent US9732087B2, “Diamino-pyridine, pyrimidine, and pyridazine modulators of the histamine H4 receptor” (JANSSEN PHARMACEUTICA NV, priority 2008, dated 2017).
pKi: −log10 of the molar value.

molecular target: human H4 receptor (Homo sapiens (Human), UniProt Q9H3N8); assay: Binding assay on recombinant human histamine H4 receptor ([3H]histamine competition, SK-N-MC cell membranes); details: membranes harvested with 96 well Brandel system; [3H]histamine 10 nM; average of results; read-out: Brandel Ki
Method in brief: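 Scintillation counting of filter-bound [3H]histamine after rapid harvesting on 0.5% PEI-treated GF/C filters with ice-cold Tris/EDTA washes. Receptor source: 30,000 g membrane pellets of SK-N-MC cells stably or transiently expressing human H4. Values shown as '>' are the top concentration tested.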

Row | pKi | SMILES
1 | 6.86 | N[C@@H]1CCN(c2ccnc(NC3CC3)n2)C1 [Example 55, 4-[(3R)-3-Aminopyrrolidin-1-yl]-N-cyclopropylpyrimidin-2-amine]

same assay, conditions: membranes harvested with cell harvester; [3H]histamine 10 nM; average of results; read-out: Cell Harvester Ki

Row | SMILES | pKi
2 | CNC1CN(c2cnnc(NCCCO)c2)C1 [Example 334, 3-({5-[3-(Methylamino)azetidin-1-yl]pyridazin-3-yl}amino)propan-1-ol] | 5.59
3 | CN1CCN(c2ccnc(N[C@H]3C[C@H]4CC[C@]3(C)C4(C)C)c2)CC1 [Example 252, 4-(4-Methylpiperazin-1-yl)-N-[(1R,2S,4R)-1,7,7-trimethylbicyclo[2.2.1]hept-2-yl]pyridin-2-amine] | 6.72
4 | CN1CCN(c2cnnc(NCCc3ccccc3)c2)CC1 [Example 409, 5-(4-Methylpiperazin-1-yl)-N-(2-phenylethyl)pyridazin-3-amine] | < 5.00
5 | CN[C@@H]1CCN(c2ccnc(N[C@H](C)C3CCCCC3)c2)C1 [Example 209, N-[(1R)-1-Cyclohexylethyl]-4-[(3R)-3-(methylamino)pyrrolidin-1-yl]pyridin-2-amine] | 5.84
6 | c1ccc(CCNc2cc(N3CCNCC3)cnn2)cc1 [Example 362, N-(2-Phenylethyl)-5-piperazin-1-ylpyridazin-3-amine] | 5.66
7 | CN1CCN(c2ccnc(NC[C@H]3CC[C@H]4C[C@@H]3C4(C)C)c2)CC1 [Example 221, N-{[(1S,2S,5S)-6,6-Dimethylbicyclo[3.1.1]hept-2-yl]methyl}-4-(4-methylpiperazin-1-yl)pyridin-2-amine] | 6.07
8 | CN[C@@H]1CCN(c2cnnc(NCc3ccc(C)cc3)c2)C1 [Example 384, 5-[(3R)-3-(Methylamino)pyrrolidin-1-yl]-N-(4-methylbenzyl)pyridazin-3-amine] | 5.70
9 | NC1CN(c2cnnc(NC3CCCC3)c2)C1 [Example 326, 5-(3-Aminoazetidin-1-yl)-N-cyclopentylpyridazin-3-amine] | 5.56
10 | CN[C@H]1CCN(c2ccnc(NC3CC3)c2)C1 [Example 235, N-Cyclopropyl-4-[(3S)-3-(methylamino)pyrrolidin-1-yl]pyridin-2-amine] | 6.39
11 | CN[C@@H]1CCN(c2cnnc(NC3CC3)c2)C1 [Example 377, N-Cyclopropyl-5-[(3R)-3-(methylamino)pyrrolidin-1-yl]pyridazin-3-amine] | 6.16
12 | CCCCNc1cc(N2C[C@H]3CCN[C@H]3C2)cnn1 [Example 310, N-Butyl-5-[(3aR,6aR)-hexahydropyrrolo[3,4-b]pyrrol-5(1H)-yl]pyridazin-3-amine] | 6.21
13 | NC1CN(c2ccnc(NCCCO)n2)C1 [Example 155, 3-{[4-(3-Aminoazetidin-1-yl)pyrimidin-2-yl]amino}propan-1-ol] | 6.13

More lines, now with the values ahead:

Row | pKi | SMILES
14 | 6.78 | CCCCNc1cc(N2CC[C@H](NC)C2)ccn1 [Example 243]
15 | 6.73 | CN1CCN(c2ccnc(NC34C[C@H]5C[C@@H](C3)C[C@@H](C4)C5)c2)CC1 [Example 219, Adamantan-1-yl-[4-(4-methyl-piperazin-1-yl)-pyridin-2-yl]-amine]
16 | 6.99 | N[C@@H]1CCN(c2ccnc(NC3CC3)n2)C1 [Example 55, 4-[(3R)-3-Aminopyrrolidin-1-yl]-N-cyclopropylpyrimidin-2-amine]
17 | 6.79 | CNC1CN(c2ccnc(NCCCO)c2)C1 [Example 283, 3-({4-[3-(Methylamino)azetidin-1-yl]pyridin-2-yl}amino)propan-1-ol]
18 | 8.42 | CN[C@@H]1CCN(c2ccnc(NCC3CCCC3)c2)C1 [Example 226, N-(Cyclopentylmethyl)-4-[(3R)-3-(methylamino)pyrrolidin-1-yl]pyridin-2-amine]
19 | 8.18 | CNC1CN(c2ccnc(NC3CC4CCC3C4)n2)C1 (stereo not drawn) [Example 147, N-Bicyclo[2.2.1]hept-2-yl-4-[3-(methylamino)azetidin-1-yl]pyrimidin-2-amine]
20 | 6.89 | c1cc(N2CCNCC2)nc(NC2CC3CCC2C3)n1 (stereo not drawn) [Example 133, N-Bicyclo[2.2.1]hept-2-yl-4-piperazin-1-ylpyrimidin-2-amine]
21 | 6.85 | N[C@H]1CCN(c2ccnc(NC3CCCCC3)n2)C1 [Example 129, 4-[(3S)-3-Aminopyrrolidin-1-yl]-N-cyclohexylpyrimidin-2-amine]
